# Laboratory results taken from patent US20120149715A1, “COMPOUNDS AND METHODS FOR THE TREATMENT OF VIRAL INFECTIONS” (priority 2010, published 2012).
# Test system: A/Vietnam/1194/04 H5N1 virus
# Parameters: species or system BALB/c mice
# Settings: mouse, in vivo
substance,measurement,setting,value
Nucleozin,animals that survived for more than 21 days,,90%
same,survival rate after inoculation compared with untreated controls,ip,significantly higher survival rate
